The source of these data is paper PMC12914960, “Repurposing a detrimental antibody epitope as targeted therapeutics for sepsis and rheumatoid arthritis” (Military Medical Research, 2026).

Structures are written as SMILES. Where “and” joins values, the source holds several entries; their conditions need not be identical. Identical values can stand only once. Where a SMILES comes first, the peptide text is derived from it.

For experiment [1], the system named is pCTS-L secretion from human PBMCs. Briefly: HMGB1-induced pCTS-L secretion by PBMCs, Western blotting. The experiment is classed as cell-based. Particulars: 16 h; for pCTS-L release: densitometry. As to the method:
Human blood was purchased from the New York Blood Center (Long Island City, NY, USA), and PBMCs were isolated via density gradient centrifugation through Ficoll (Ficoll-Paque PLUS) as previously described. PBMCs were cultured in RPMI-1640 supplemented with 10% human serum, 2 mmol/L L-glutamine, 100 U/ml penicillin, and 100 µg/ml streptomycin (all from Invitrogen, Carlsbad, CA, USA). For experiments, PBMCs were stimulated with recombinant HMGB1 (0.5 or 2.0 µg/ml) for 16 h, either alone or in combination with P2-1 at 5.0 or 10.0 µg/ml. Cell-free supernatants were collected for analysis of cytokine/chemokine levels via cytokine antibody arrays, or pCTS-L levels via Western blotting analysis as previously described.
Cell-conditioned medium from human PBMC cultures was collected and concentrated via Amicon Ultra Centrifugal Filters with a 10 kD molecular weight cutoff (Cat. #UFC801096, MilliporeSigma, Burlington, MA, USA). Equal volumes of conditioned medium, representing equivalent numbers of cells, were resolved on sodium dodecyl sulfate-polyacrylamide gels and transferred to polyvinylidene difluoride membranes. After being blocked with 5% nonfat milk in Tris-buffered saline with 0.1% Tween 20, the membranes were probed with a homemade primary monoclonal antibody against pCTS-L (e.g., mAb2, 1:1000) overnight as previously described. After washing, the membranes were incubated with a horseradish peroxidase-conjugated secondary antibody. The protein bands were visualized using enhanced chemiluminescence substrate (Pierce) and detected via a chemiluminescence imaging system (e.g., Bio-Rad ChemiDoc MP). The relative levels of specific proteins were determined using the UN-SCAN-IT gel analysis software version 7.1 (Silk Scientific Inc., Orem, UT, USA) and expressed in arbitrary units (AU). The experiments were performed in quadruplicate (n = 4 biological replicates).
Fig. S9 Full Western blotting analysis of the effect of P2- 1 on HMGB1- induced pCTS-L release in human PBMCs. Human PBMCs were stimulated with HMGB1 (0.5 µ g/ml) in th e abs ence or p resen ce of P2-1 (5.0 or 10.0 µg/ml) for 16 h, and the levels of pCTS-L in the cell-conditioned medium were determined by Western blotting, with sample loading normalized by volume of culture medium conditioned by an equivalent number of cells. Representative Western blotting images showing the dose-dependent […]
human PBMCs. HMGB1 high mobility group box 1, pCTS -L procathepisn L , PBMCs PBMCs peripheral […]
(1 picture or pasted object on this page, not shown here)

Experiment [2] relates to Differentiated human macrophages. Briefly: HMGB1-induced macrophage death, trypan blue uptake. The experiment is classed as cell-based. Particulars: 16 h; for Trypan blue uptake: individual replicates. As to the method: Human macrophage differentiation and treatment
Human PBMCs were differentiated into macrophages by culturing in human macrophage colony-stimulating factor (M-CSF, 20 ng/ml) for 5 – 6 d. Differentiated macrophages were maintained in Dulbecco’s modified Eagle’s medium supplemented with 1% penicillin/streptomycin and 10% human serum. Upon reaching 70 – 80% conflu ence, adh erent cells were wash ed and switched to Opti-MEM I before stimulation with recombinant HMGB1 (0.5 µg/ml) with or without P2- 1 (5.0 or 10 µg/ml) for 16 […]
Cell viability was assessed via the tryp an blue excl usion and lactat e dehyd ro genase (LDH) release method as previously described . For trypan blue exclusion, random phase-contr ast images were captur ed , and the percentage of nonviable, trypan blue-stained cells was calculated. LDH release in the culture medium was quantified with an LDH Ass ay Kit (Cat. #L7572, Pointe Scientific Inc., Canton, MI, USA) according to the manufacturer ’s instructions. Optical density was measured at 340 nm, and LDH content was expressed as a per centag e of maximal release in the presence of 2% Triton X-100. The experiments were performed 5 – 7 times ( n= 5 –7 biological replicates). […]

On to `CCCC[C@H](NC(=O)[C@H](Cc1c[nH]cn1)NC(=O)[C@@H](NC(=O)[C@H](CCCCN)NC(=O)[C@@H](N)[C@@H](C)O)C(C)C)C(=O)N[C@@H](CCCCN)C(=O)N[C@@H](CO)C(=O)N[C@@H](Cc1ccccc1)C(=O)N[C@@H](CC(C)C)C(=O)N[C@@H](C)C(=O)N[C@@H](Cc1ccccc1)C(=O)N[C@@H](CCC(N)=O)C(=O)N[C@H](C(=O)N[C@@H](CCCCN)C(=O)N[C@H](C(=O)O)[C@@H](C)O)[C@@H](C)O` [P2-1] (HELM PEPTIDE1{T.K.V.H.[Nle].K.S.F.L.A.F.Q.T.K.T}$$$$V2.0; N-terminus and C-terminus assumed), for which the pCTS-L release in experiment [1] (HMGB1 (0.5) + P2-1 5.0 μg/ml, individual replicates) was 1.2 and 4 and 3.2 and 2.1; in experiment [1] (HMGB1 (0.5) + P2-1 10.0 μg/ml, individual replicates) it was 0.4 and 0.7 and 1.9 and 1.1; in experiment [1] (HMGB1 (2.0) + P2-1 5.0 μg/ml, single value), 4.8; in experiment [1] (HMGB1 (2.0) + P2-1 10.0 μg/ml, single value), 1.6. Further, the “HMGB1-induced pCTS-L secretion, in words” value in experiment [1] (P2-1 5.0 or 10.0 µg/ml) is “striking and dose-dependent suppression of HMGB1-induced pCTS-L secretion”. In addition, the Trypan blue uptake in experiment [2] (HMGB1 0.5 µg/ml + P2-1 5.0 μg/ml) was 4.1% and 2.7% and 4.8% and 2.3% and 0.9% and 2.4%; in experiment [2] (HMGB1 0.5 µg/ml + P2-1 10.0 μg/ml), 2.9% and 0.8% and 3.8% and 1.1% and 4.2% and 3.6% and 2.4%. Further, in experiment [2] (trypan blue uptake and LDH release, HMGB1 0.5 µg/ml, P2-1 5.0 or 10 µg/ml), the “HMGB1-induced macrophage death, in words” value is “significantly inhibited HMGB1-induced macrophage death”.
